Measured values reported in US9999616B2 (ZENITH EPIGENETICS LTD., priority 2013, dated 2018).

Key:
Human AML MV-4-11 cells = experiment: Inhibition of cell proliferation in MV4-11 cells (CellTiter Aqueous One); type: cell-based; conditions: for IC50: MV4-11, 72 h
In short: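 MV4-11 cells, 5×10^4 per well in IMDM with 10% FBS, were exposed to increasing compound concentrations or 0.1% DMSO for 72 h at 37 °C in triplicate. Viability was read by MTS (CellTiter Aqueous One) absorbance at 490 nm after 3-4 h. IC50 was derived from background-corrected signal relative to DMSO.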

hIL-6 mRNA = experiment: Inhibition of hIL-6 mRNA transcription in LPS-stimulated U937 macrophages; type: cell-based, Human; conditions: Homo sapiens, U-937, PMA-differentiated U937 cells, 1 h pretreatment, LPS 3 h, read-out: IL-6 activity
In short: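 PMA-differentiated U937 macrophages (60 ng/mL PMA, 3 days) pretreated 1 h with compound in 0.1% DMSO, then stimulated with 1 ug/mL E. coli LPS for 3 h at 37° C. IL-6 mRNA quantified by one-step TaqMan qRT-PCR, normalized to cyclophilin; fold expression relative to control, triplicate wells.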

[1] = molecular target: Brd4 bromodomain 1 (BRD4(1)) (Homo sapiens, UniProt O60885); experiment: Inhibition of tetra-acetylated histone H4 binding to Brd4 bromodomain 1, measured by FRET (HTRF); parameters: made in house; host or cells: E. coli BL21(DE3); conditions: 2 h at room temperature
In short: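 Inhibition was read as a drop in 665 nm relative to 620 nm HTRF signal after 2 h at room temperature, with IC50 from dose-response curves in duplicate wells. Reactions held 200 nM E. coli-expressed His-tagged bromodomain and 25-50 nM biotinylated tetra-acetylated histone H4 peptide. Buffer was 30 mM HEPES pH 7.4 with KF, CHAPS, BSA and 0.2% DMSO.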

[2] = tested on: c-myc in Human AML MV4-11 cells; experiment: Inhibition of cMYC expression (mRNA, real-time PCR) in MV4-11 cells; type: cell-based; conditions: 3 h treatment, cMYC mRNA by real-time PCR
In short: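 MV4-11 cells in IMDM with 10% FBS were treated with increasing compound concentrations (DMSO 0.1%) for 3 h at 37 °C, in triplicate. Isolated mRNA was quantified by one-step TaqMan RT-qPCR, cMYC Ct normalized to cyclophilin, and fold expression given relative to DMSO control.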

IC50 (Human AML MV-4-11 cells)	IC50 (hIL-6 mRNA)	IC50 [1]	IC50 [2]	SMILES	Cell Proliferation activity (Human AML MV-4-11 cells; 72 h)
300 to 3000 nM	≤ 300 nM	≤ 300 nM	≤ 300 nM	Cc1nc2c(-c3cc(Cl)ccc3C)cc(-c3c(C)noc3C)cc2[nH]1 [Example Compound 105, 4-(4-(5-chloro-2-methyl-phenyl)-2-methyl-1H-benzo[d]imidazol-6-yl)-3,5-dimethyl isoxazole]	
300 to 3000 nM	300 to 3000 nM	≤ 300 nM	300 to 3000 nM	Cc1nc2c(-c3cccc(C)c3F)cc(-c3c(C)noc3C)cc2[nH]1 [Example Compound 106, 4-(4-(2-fluoro-3-methyl-phenyl)-2-methyl-1H-benzo[d]imidazol-6-yl)-3,5-dimethyl isoxazole]	
300 to 3000 nM	300 to 3000 nM	≤ 300 nM	300 to 3000 nM	COc1ccc(Cl)cc1-c1cc(-c2c(C)noc2C)cc2[nH]c(C)nc12 [Example Compound 107, 4-(4-(5-chloro-2-methoxy-phenyl)-2-methyl-1H-benzo[d]imidazol-6-yl)-3,5-dimethyl isoxazole]	
300 to 3000 nM	300 to 3000 nM	≤ 300 nM	300 to 3000 nM	COc1ccc(F)c(-c2cc(-c3c(C)noc3C)cc3[nH]c(C)nc23)c1 [Example Compound 108, 4-(4-(2-fluoro-5-methoxy-phenyl)-2-methyl-1H-benzo[d]imidazol-6-yl)-3,5-dimethyl isoxazole]	
300 to 3000 nM	≤ 300 nM	≤ 300 nM	300 to 3000 nM	CCOc1ncccc1-c1cc(-c2c(C)noc2C)cc2[nH]c(C)nc12 [Example Compound 109, 4-(4-(2-ethoxy-pyridin-3-yl)-2-methyl-1H-benzo[d]imidazol-6-yl)-3,5-dimethyl isoxazole]	
300 to 3000 nM	300 to 3000 nM	≤ 300 nM	300 to 3000 nM	Cc1nc2c(-c3cccc4ccncc34)cc(-c3c(C)noc3C)cc2[nH]1 [Example Compound 110, 4-(4-(iso-quinolin-8-yl)-2-methyl-1H-benzo[d]imidazol-6-yl)-3,5-dimethyl isoxazole]	
300 to 3000 nM	≤ 300 nM	≤ 300 nM	≤ 300 nM	COc1ccc(F)cc1-c1cc(-c2c(C)noc2C)cc2[nH]c(C)nc12 [Example Compound 112, 4-(4-(5-fluoro-2-methoxy-phenyl)-2-methyl-1H-benzo[d]imidazol-6-yl)-3,5-dimethyl-isoxazole]	
≤ 300 nM	≤ 300 nM	≤ 300 nM	≤ 300 nM	COCc1ccccc1-c1cc(-c2c(C)noc2C)cc2[nH]c(C)nc12 [Example Compound 117, 4-(4-(2-(methoxy-methyl)phenyl)-2-methyl-1H-benzo[d]imidazol-6-yl)-3,5-dimethyl-isoxazole]	
300 to 3000 nM	300 to 3000 nM	≤ 300 nM	300 to 3000 nM	COc1ncccc1-c1cc(-c2c(C)noc2C)cc2[nH]c(C)nc12 [Example Compound 118, 4-(4-(2-methoxy-pyridin-3-yl)-2-methyl-1H-benzo[d]imidazol-6-yl)-3,5-dimethyl isoxazole]	
300 to 3000 nM	≤ 300 nM	≤ 300 nM	300 to 3000 nM	Cc1ccncc1-c1cc(-c2c(C)noc2C)cc2cn[nH]c12 [Example Compound 119, 3,5-dimethyl-4-(7-(4-methyl-pyridin-3-yl)-1H-indazol-5-yl)isoxazole]	
300 to 3000 nM	≤ 300 nM	≤ 300 nM	≤ 300 nM	Cc1nn(C)cc1-c1cc(-c2c(C)noc2C)cc2cn[nH]c12 [Example Compound 120, 4-(7-(1,3-dimethyl-1H-pyrazol-4-yl)-1H-indazol-5-yl)-3,5-dimethyl isoxazole]	
300 to 3000 nM	≤ 300 nM	≤ 300 nM	≤ 300 nM	Cc1nc2c(-c3cccc(C#N)c3C)cc(-c3c(C)noc3C)cc2[nH]1 [Example Compound 123, 3-(6-(3,5-dimethyl-isoxazol-4-yl)-2-methyl-1H-benzo[d]imidazol-4-yl)-2-methyl-benzonitrile]	
300 to 3000 nM	300 to 3000 nM	≤ 300 nM	300 to 3000 nM	Cc1nc2c(-c3ccc4scnc4c3)cc(-c3c(C)noc3C)cc2[nH]1 [Example Compound 124, 4-(4-(benzo[d]thiazol-5-yl)-2-methyl-1H-benzo[d]imidazol-6-yl)-3,5-dimethyl isoxazole]	
≤ 300 nM	≤ 300 nM	≤ 300 nM	≤ 300 nM	Cc1noc(C)c1-c1cc(-c2c(C)nn(C)c2C)c2[nH]ncc2c1 [Example Compound 127, 3,5-dimethyl-4-(7-(1,3,5-trimethyl-1H-pyrazol-4-yl)-1H-indazol-5-yl)isoxazole]	
300 to 3000 nM	≤ 300 nM	300 to 3000 nM	300 to 3000 nM	Cc1noc(C)c1-c1cc(-c2cccnc2C(F)(F)F)c2[nH]ncc2c1 [Example Compound 128, 3,5-dimethyl-4-(7-(2-(trifluoromethyl)pyridin-3-yl)-1H-indazol-5-yl)isoxazole]	
300 to 3000 nM	300 to 3000 nM	300 to 3000 nM	300 to 3000 nM	Cc1noc(C)c1-c1cc(-c2cnccc2C(F)(F)F)c2[nH]ncc2c1 [Example Compound 129, 3,5-dimethyl-4-(7-(4-(trifluoromethyl)pyridin-3-yl)-1H-indazol-5-yl)isoxazole]	
300 to 3000 nM	≤ 300 nM	≤ 300 nM	300 to 3000 nM	Cc1nc2c(-c3c(Cl)cncc3Cl)cc(-c3c(C)noc3C)cc2[nH]1 [Example Compound 130, 4-(4-(3,5-dichloro-pyridin-4-yl)-2-methyl-1H-benzo[d]imidazol-6-yl)-3,5-dimethyl isoxazole]	
300 to 3000 nM	300 to 3000 nM	300 to 3000 nM	300 to 3000 nM	COc1ncc(F)cc1-c1cc(-c2c(C)noc2C)cc2[nH]c(C)nc12 [Example Compound 131, 4-(4-(5-fluoro-2-methoxy-pyridin-3-yl)-2-methyl-1H-benzo[d]imidazol-6-yl)-3,5-dimethyl isoxazole]	
300 to 3000 nM	300 to 3000 nM	300 to 3000 nM	300 to 3000 nM	Cc1nc2c(-c3ccc(F)c(F)c3C)cc(-c3c(C)noc3C)cc2[nH]1 [Example Compound 132, 4-(4-(3,4-difluoro-2-methyl-phenyl)-2-methyl-1H-benzo[d]imidazol-6-yl)-3,5-dimethyl isoxazole]	
300 to 3000 nM	300 to 3000 nM	≤ 300 nM	≤ 300 nM	COc1nc(C)ccc1-c1cc(-c2c(C)noc2C)cc2[nH]c(C)nc12 [Example Compound 135, 4-(4-(2-methoxy-6-methyl-pyridin-3-yl)-2-methyl-1H-benzo[d]imidazol-6-yl)-3,5-dimethyl isoxazole]	
300 to 3000 nM	300 to 3000 nM	≤ 300 nM	≤ 300 nM	Cc1nc2c(-c3ccc4ocnc4c3)cc(-c3c(C)noc3C)cc2[nH]1 [Example Compound 136, 5-(6-(3,5-dimethyl-isoxazol-4-yl)-2-methyl-1H-benzo[d]imidazol-4-yl)benzo[d] oxazole]	
300 to 3000 nM	≤ 300 nM	≤ 300 nM	300 to 3000 nM	Cc1nc2c(-c3cccc4ccccc34)cc(-c3c(C)noc3C)cc2[nH]1 [Example Compound 138, 3,5-dimethyl-4-(2-methyl-4-(naphthalen-1-yl)-1H-benzo[d]imidazol-6-yl)isoxazole]	
	300 to 3000 nM	300 to 3000 nM	3000 to 30000 nM	Cc1nc2c(-c3csnc3C)cc(-c3csnc3C)cc2[nH]1 [Example Compound 139, 4,4′-(2-methyl-1H-benzo[d]imidazole-4,6-diyl)bis(3-methylisothiazole)]	Not active
300 to 3000 nM	300 to 3000 nM	300 to 3000 nM	300 to 3000 nM	Cc1noc(C)c1-c1cc(NCCc2ccccc2)c2nc[nH]c2c1 [Example Compound 142, 6-(3,5-dimethyl-isoxazol-4-yl)-N-phenethyl-1H-benzo[d] imidazol-4-amine]	
300 to 3000 nM	300 to 3000 nM	≤ 300 nM	300 to 3000 nM	Cc1nc2c(Nc3cccnc3C)cc(-c3c(C)noc3C)cc2[nH]1 [Example Compound 143, 6-(3,5-dimethylisoxazol-4-yl)-2-methyl-N-(2-methylpyridin-3-yl)-1H-benzo[d]imidazol-4-amine]	
≤ 300 nM	≤ 300 nM	≤ 300 nM	≤ 300 nM	Cc1nc2c(-c3ccccc3Cl)cc(-c3c(C)noc3C)cc2[nH]1 [Example Compound 144, 4-(4-(2-chloro-phenyl)-2-methyl-1H-benzo[d]imidazol-6-yl)-3,5-dimethyl isoxazole]	
